# In US12691112B2, “FGFR tyrosine kinase inhibitors for the treatment of urothelial carcinoma” (Janssen Pharmaceutica NV, priority 2019, dated 2026):
# Like-named read-outs stand apart in the source and are kept apart here.
# System: subjects with metastatic or surgically unresectable urothelial cancer
# [1] = all-causality, 10 mg intermittent, n = 33
# [2] = treatment-emergent, all-causality, 8 mg Continuous, Regimen 3 (n = 99)
# [3] = treatment-related, 6 mg Continuous, Regimen 2 (n = 78)
# [4] = treatment-related, 8 mg Continuous Erdafitinib, Regimen 3 (n = 99)
# [5] = treatment-related, 10 mg Intermittent, Regimen 1 (n = 33)
# Description: Study treatment was administered on 28-day cycles. […] Patients were randomized 1:1 to 28-day cycles to the following 2 regimens until a regimen was selected for further study: Regimen 1 (10 mg once daily intermittent (7 days on/7 days); Regimen 2 (6 mg once daily continuous). Randomization was stratified according to performance status (0 to 1 vs. 2), hemoglobin value (<10 vs. ≥10 g per dl), FGFR alteration type (mutation vs. fusion), prior treatment status (chemotherapy-resistant vs. chemotherapy naïve), and disease distribution (presence or absence of visceral [liver, lung, bone]metastases). Starting dose selection was based on phase 1 efficacy and tolerability.
# Based on interim analysis and pharmacokinetic-pharmacodynamic modeling of serum phosphate levels, starting dose was increased to 8 mg per day continuous (Regimen 3). Thus, after interim analysis, this became a single-arm study. […] Treatment continued until disease progression or unacceptable adverse event(s) per investigator.
# Safety was evaluated based on clinical laboratory tests, physical exams, electrocardiograms, and ophthalmology examinations. Adverse events and abnormalities were assessed by investigator and graded per NCI CTCAE v.4.0
# Prophylactic measures were taken to minimize risk of common adverse events related to FGFR inhibition. To reduce risk of hyperphosphatemia, a low-phosphate diet was recommended for all patients (600 to 800 mg of dietary phosphate intake per day). To reduce the risk of skin effects, the application of alcohol-free emollient moisturizing cream and avoidance of unnecessary exposure to sunlight, soap, perfumed products, and hot baths was recommended. Patients were asked to keep their fingers and toes clean and nails trimmed to reduce risk of nail effects.
# Additional ophthalmology examinations were performed if clinically indicated.
compound,measurement,setting,value
"COc1cc(OC)cc(N(CCNC(C)C)c2ccc3ncc(-c4cnn(C)c4)nc3c2)c1 [erdafitinib, N-(3,5-dimethoxy-phenyl)-N′-(1-methylethyl)-N-[3-(1-methyl-1H-pyrazol-4-yl)quinoxalin-6-yl]ethane-1,2-diamine]","Decreased appetite, grade ≥ 3",[1],1 no.
same,"Diarrhea, any grade",[1],14 no.
same,"Diarrhea, grade 1",[1],7 no.
same,"Diarrhea, grade 2",[1],6 no.
same,"Diarrhea, grade ≥ 3",[1],1 no.
same,"Dry eye, any grade",[1],3 no.
same,"Dry eye, grade 1",[1],2 no.
same,"Dry eye, grade 2",[1],1 no.
same,"Dry eye, grade ≥ 3",[1],0 no.
same,"Dry mouth, any grade",[1],16 no.
same,"Dry mouth, grade 1",[1],15 no.
same,"Dry mouth, grade 2",[1],1 no.
same,"Dry mouth, grade ≥ 3",[1],0 no.
same,"Dry skin, any grade",[1],9 no.
same,"Dry skin, grade 1",[1],8 no.
same,"Dry skin, grade 2",[1],1 no.
same,"Dry skin, grade ≥ 3",[1],0 no.
same,"Dysgeusia, any grade",[1],10 no.
same,"Dysgeusia, grade 1",[1],7 no.
same,"Dysgeusia, grade 2",[1],3 no.
same,"Dysgeusia, grade ≥ 3",[1],0 no.
same,"Dyspepsia, any grade",[1],3 no.
same,"Dyspepsia, grade 1",[1],2 no.
same,"Dyspepsia, grade 2",[1],1 no.
same,"Dyspepsia, grade ≥ 3",[1],0 no.
same,"Dyspnea, any grade",[1],8 no.
same,"Dyspnea, grade 1",[1],3 no.
same,"Dyspnea, grade 2",[1],2 no.
same,"Dyspnea, grade ≥ 3",[1],3 no.
same,"Fatigue, any grade",[1],6 no.
same,"Fatigue, grade 1",[1],4 no.
same,"Fatigue, grade 2",[1],2 no.
same,"Fatigue, grade ≥ 3",[1],0 no.
same,"Hand-foot syndrome, any grade",[1],2 no.
same,"Hand-foot syndrome, grade 1",[1],0 no.
same,"Hand-foot syndrome, grade 2",[1],2 no.
same,"Hand-foot syndrome, grade ≥ 3",[1],0 no.
same,"Hematuria, any grade",[1],3 no.
same,"Hematuria, grade 1",[1],1 no.
same,"Hematuria, grade 2",[1],2 no.
same,"Hematuria, grade ≥ 3",[1],0 no.
same,"Hyperphosphatemia, any grade",[1],16 no.
same,"Hyperphosphatemia, grade 1",[1],15 no.
same,"Hyperphosphatemia, grade 2",[1],1 no.
same,"Hyperphosphatemia, grade ≥ 3",[1],0 no.
same,"Hypomagnesemia, any grade",[1],2 no.
same,"Hypomagnesemia, grade 1",[1],2 no.
same,"Hypomagnesemia, grade 2",[1],0 no.
same,"Hypomagnesemia, grade ≥ 3",[1],0 no.
same,"Hyponatremia, any grade",[1],2 no.
same,"Hyponatremia, grade 1",[1],0 no.
same,"Hyponatremia, grade 2",[1],0 no.
same,"Hyponatremia, grade ≥ 3",[1],2 no.
same,"Insomnia, any grade",[1],3 no.
same,"Insomnia, grade 1",[1],0 no.
same,"Insomnia, grade 2",[1],3 no.
same,"Insomnia, grade ≥ 3",[1],0 no.
same,"Lacrimation increased, any grade",[1],6 no.
same,"Lacrimation increased, grade 1",[1],5 no.
same,"Lacrimation increased, grade 2",[1],1 no.
same,"Lacrimation increased, grade ≥ 3",[1],0 no.
same,"Nail dystrophy, any grade",[1],2 no.
same,"Nail dystrophy, grade 1",[1],2 no.
same,"Nail dystrophy, grade 2",[1],0 no.
same,"Nail dystrophy, grade ≥ 3",[1],0 no.
same,"Nausea, any grade",[1],5 no.
same,"Nausea, grade 1",[1],3 no.
same,"Nausea, grade 2",[1],2 no.
same,"Nausea, grade ≥ 3",[1],0 no.
same,"Onycholysis, any grade",[1],7 no.
same,"Onycholysis, grade 1",[1],3 no.
same,"Onycholysis, grade 2",[1],3 no.
same,"Onycholysis, grade ≥ 3",[1],1 no.
same,"Onychomadesis, any grade",[1],1 no.
same,"Onychomadesis, grade 1",[1],1 no.
same,"Onychomadesis, grade 2",[1],0 no.
same,"Onychomadesis, grade ≥ 3",[1],0 no.
same,"Oropharyngeal pain, any grade",[1],0 no.
same,"Oropharyngeal pain, grade 1",[1],0 no.
same,"Oropharyngeal pain, grade 2",[1],0 no.
same,"Oropharyngeal pain, grade ≥ 3",[1],0 no.
same,"Pain in extremity, any grade",[1],5 no.
same,"Pain in extremity, grade 1",[1],3 no.
same,"Pain in extremity, grade 2",[1],1 no.
same,"Pain in extremity, grade ≥ 3",[1],1 no.
same,"Paronychia, any grade",[1],2 no.
same,"Paronychia, grade 1",[1],0 no.
same,"Paronychia, grade 2",[1],2 no.
same,"Paronychia, grade ≥ 3",[1],0 no.
same,"Peripheral edema, any grade",[1],5 no.
same,"Peripheral edema, grade 1",[1],1 no.
same,"Peripheral edema, grade 2",[1],4 no.
same,"Peripheral edema, grade ≥ 3",[1],0 no.
same,"Pyrexia, any grade",[1],5 no.
same,"Pyrexia, grade 1",[1],5 no.
same,"Pyrexia, grade 2",[1],0 no.
same,"Pyrexia, grade ≥ 3",[1],0 no.
same,"Retinal detachment, any grade",[1],2 no.
same,"Retinal detachment, grade 1",[1],1 no.
same,"Retinal detachment, grade 2",[1],1 no.
same,"Retinal detachment, grade ≥ 3",[1],0 no.
same,"Stomatitis, any grade",[1],16 no.
same,"Stomatitis, grade 1",[1],9 no.
same,"Stomatitis, grade 2",[1],6 no.
same,"Stomatitis, grade ≥ 3",[1],1 no.
same,"Urinary tract infection, any grade",[1],4 no.
same,"Urinary tract infection, grade 1",[1],0 no.
same,"Urinary tract infection, grade 2",[1],2 no.
same,"Urinary tract infection, grade ≥ 3",[1],2 no.
same,"Vision blurred, any grade",[1],5 no.
same,"Vision blurred, grade 1",[1],4 no.
same,"Vision blurred, grade 2",[1],1 no.
same,"Vision blurred, grade ≥ 3",[1],0 no.
same,"Vomiting, any grade",[1],9 no.
same,"Vomiting, grade 1",[1],7 no.
same,"Vomiting, grade 2",[1],2 no.
same,"Vomiting, grade ≥ 3",[1],0 no.
same,"Weight decreased, any grade",[1],3 no.
same,"Weight decreased, grade 1",[1],1 no.
same,"Weight decreased, grade 2",[1],2 no.
same,"Weight decreased, grade ≥ 3",[1],0 no.
same,CSR leading to discontinuation,in vivo,three patients
same,discontinuation due to grade 1 hyperphosphatemia,in vivo,One patient discontinued treatment
same,normalization of phosphate elevation,in vivo,normalized by cycle 5
same,retinal vein or artery occlusion,in vivo,no patient had retinal vein or artery occlusion
same,time of peak phosphate elevation after erdafitinib initiation,in vivo,6 weeks
same,death as a result of an adverse event,myocardial infarction considered unrelated to treatment,One patient died as a result of an adverse event
same,patients with grade ≥3 treatment-emergent adverse events,overall trial population,66%
same,"some type of eye disorder, regardless of relation to treatment",patients overall,54%
same,"Patients with Alopecia, Grade ≥3",[2],0 no.
same,"Patients with Decreased appetite, Grade ≥3",[2],0 no.
same,"Patients with Dry mouth, Grade ≥3",[2],0 no.
same,"Patients with Dry skin, Grade ≥3",[2],0 no.
same,"Patients with Urinary tract infection, Grade 1",[2],0 no.
same,"Patients with Vision blurred, Grade ≥3",[2],0 no.
same,"Patients with Alopecia, Any grade",[3],8 no.
same,"Patients with Alopecia, Grade 2",[3],0 no.
same,"Patients with Alopecia, Grade ≥3",[3],0 no.
same,"Patients with Conjunctivitis, Grade 2",[3],0 no.
same,"Patients with Conjunctivitis, Grade ≥3",[3],0 no.
same,"Patients with Diarrhea, Grade ≥3",[3],0 no.
same,"Patients with Dry skin, Grade ≥3",[3],0 no.
same,"Patients with Dysgeusia, Grade ≥3",[3],0 no.
same,"Patients with Hand-foot syndrome, Grade ≥3",[3],0 no.
same,"Patients with Hyperphosphatemia, Grade ≥3",[3],0 no.
same,"Patients with Lacrimation increased, Grade ≥3",[3],0 no.
same,"Patients with Nausea, Grade ≥3",[3],0 no.
same,"Patients with Onychomadesis, Grade ≥3",[3],0 no.
same,"Patients with Paronychia, Grade ≥3",[3],0 no.
same,"Patients with Retinal detachment, Grade ≥3",[3],0 no.
same,"Patients with Arrhythmia-related events, Any grade",[4],0 no.
same,"Patients with Arrhythmia-related events, Grade ≥3",[4],0 no.
same,"Patients with Alopecia, Grade ≥3",[5],0 no.
same,"Patients with Conjunctivitis, Grade ≥3",[5],0 no.
same,"Patients with Decreased appetite, Grade ≥3",[5],0 no.
same,"Patients with Diarrhea, Grade 2",[5],5 no.
same,"Patients with Dry mouth, Grade ≥3",[5],0 no.
same,"Patients with Dry skin, Grade ≥3",[5],0 no.
same,"Patients with Dysgeusia, Grade ≥3",[5],0 no.
same,"Patients with Fatigue, Grade ≥3",[5],0 no.
same,"Patients with Hand-foot syndrome, Grade 1",[5],0 no.
same,"Patients with Hand-foot syndrome, Grade ≥3",[5],0 no.
same,"Patients with Hyperphosphatemia, Grade ≥3",[5],0 no.
same,"Patients with Lacrimation increased, Grade 2",[5],0 no.
same,"Patients with Lacrimation increased, Grade ≥3",[5],0 no.
same,"Patients with Nausea, Grade ≥3",[5],0 no.
same,"Patients with Onychomadesis, Grade 2",[5],0 no.
same,"Patients with Onychomadesis, Grade ≥3",[5],0 no.
same,"Patients with Paronychia, Grade 1",[5],0 no.
same,"Patients with Paronychia, Grade ≥3",[5],0 no.
same,"Patients with Retinal detachment, Grade ≥3",[5],0 no.
same,"Patients with Vision blurred, Grade ≥3",[5],0 no.
